The values that follow come from patent US20030149306A1, “Process for the preparation of polymorph of 4-(aryl)-1,2,3,4-tetrahydro-1-naphthale-namine derivative” (priority 2000, published 2003).

“Also recorded” adds a separate entry of the source. Structures can show the parent of a compound that is named as a salt.

The conditions of series [1]: as compared to Form I; cited from earlier work.
For series [2] the following is noted: compared among Forms I to V; cited from earlier work.
The conditions of series [3]: from a pharmaceutical formulation; cited from earlier work.
Series [4] in a line: solid-state stability of Form V (Infrared spectrum KBr and X-ray diffractogram) under storage, grinding and heating. In kind it is physicochemical. Here is the method: For example, it was stable for 3 months at 40° C. and 75% relative humidity or when subjected to grinding in a pestle and mortar or when heated upto 140° C. for 3 hours.
No change in Infrared spectrum (KBr) and X-ray diffractogram was observed after 3 months at 40° C. and 75% relative humidity or when subjected to grinding in a pestle and mortar or when heated upto 140° C. for 3 hours.

Take `CN[C@H]1CC[C@@H](c2ccc(Cl)c(Cl)c2)c2ccccc21` [Example T1, (1S, 4S) N-methyl-4-(3,4-dichlorophenyl)-1,2,3,4-tetrahydro-1-naphthalenamine]: in series [1], the bioavailability result is “much-improved bioavailability”.
Consider `CN[C@H]1CC[C@@H](c2ccc(Cl)c(Cl)c2)c2ccccc21` [Form I, hydrochloride salt of (1S,4S) N-methyl-4-(3,4-dichlorophenyl)-1,2,3,4-tetrahydro-1-naphthalenamine], for which the “thermodynamic stability among crystalline forms” value in series [2] was “most thermodynamically stable form; also recorded: most stable crystalline form”. In addition, in series [3], the “dissolution rate with respect to the desired bioavailability” value is reported as “dissolves too slowly”.
Regarding `CN[C@H]1CC[C@@H](c2ccc(Cl)c(Cl)c2)c2ccccc21` [Form V, hydrochloride salt of (1S,4S) N-methyl-4-(3,4-dichlorophenyl)-1,2,3,4-tetrahydro-1-naphthalenamine], the “stability (change in Infrared spectrum (KBr) and X-ray diffractogram)” value in series [4] (3 months at 40° C. and 75% relative humidity) is recorded as “stable”; in series [4] (3 months at 40° C. and 75% relative humidity, listed as Example 1) it was “No change”; in series [4] (heated upto 140° C. for 3 hours) it was “stable”; in series [4] (heated upto 140° C. for 3 hours, listed as Example 1), “No change”; in series [4] (subjected to grinding in a pestle and mortar), “stable”; in series [4] (subjected to grinding in a pestle and mortar, listed as Example 1), “No change”.
